Data reported in patent US20260008784A1 (VASTHERA CO., LTD., priority 2022, published 2026).

Experiments:
[1] = in vitro; conditions: human
Experimental: (§2) For cytotoxicity analysis, human aortic endothelial cells (HAEC) and smooth muscle cells (HASMC) were seeded in a 96-well culture plate at density of 4000 cells/well in a final volume of 100 μL. Cells were cultured for 24 h and serum-starved for an additional 18 h. Test compounds were serially diluted with EBM-2 culture medium, added to the plate at 100 μL/well, and further incubated for 24 h. The number of viable cells was measured using the WST-1 cell viability assay kit (Roche Diagnostics, USA). Cell number was expressed as absorbance values at 450 nm after subtracting the turbidity value at 600 nm. The absorbance values from three replicate wells were averaged.
(§3) After treatment with ascending concentrations of each compound, the concentration of test compound corresponding to 50% cell viability (CC50) was measured.

[2] = in vitro; conditions: human; remark: listed apart in the source
Experimental: as §2, §3

[3] = test system: SuHx rat model of pulmonary arterial hypertension; assay: Sugen/hypoxia (SuHx) rat model of pulmonary arterial hypertension; assay type: in vivo; conditions: P.O., once daily, 0.1 mg/kg, 5 weeks; for RV hypertrophy (Fulton's index) / Right ventricular systolic pressure (RVSP): compared to vehicle control group, FIG. 7
Experimental: The rat study protocol was approved by the Institutional Animal Care and Use Committee of the Ewha Womans University, Republic of Korea, and conforms to the ARRIVE guidelines. Six-week-old rats were acclimatized for one week in the laboratory. Then, Sugen 5416 (Sigma Aldrich) was subcutaneously injected at a dose of 20 mg/kg. The administered subjects were maintained in a normobaric hypoxic (10% O2) chamber (A chamber, Biosphenix) for 3 weeks. Rats were transferred to normoxia and orally administered with either control vehicle or test compounds for additional 5 weeks (P.O., once daily, 0.1 mg per kg weight).
Right ventricular systolic pressure (RVSP) was measured by […] using a curved catheter equipped with PowerLab2/26 device (AD Instruments, UK). Rats were anesthetized with 2% isoflurane inhalation. A catheter was inserted through the right jugular vein, the pressure was measured for 10 seconds with stabilized pattern. After […], rats were perfused with saline, and the heart was carefully removed. The removed heart was dissected into the right ventricle (RV), the rest of the septum (S; septum), and the left ventricle (LV). Each piece of heart was weighed using a microbalance. The RV/(LV+S) value was calculated and represented as a right ventricular hypertrophy index (Fulton's index).
Rats were anesthetized with 2% isoflurane inhalation and subjected to transcardiac perfusion-fixation with heparinized saline solution containing […]. Then, left lung lobes were incised and fixed in 10% NBF for 3 days. The fixed tissues were paraffin-embedded and sectioned using a rotary microtome (Leica HistoCore MULTICUT). Two serial tissue sections (4 μm thick) were placed a slide glass and stained with hematoxylin and eosin (HE). For analysis, ˜100 pulmonary arteries (diameter 20-100 μm) per tissue section were chosen for measurement. The luminal, internal elastic laminal, and external elastic laminal areas were quantified using NIH ImageJ v1.62. The intimal and medial areas were determined by subtraction of the luminal area from the internal elastic area and by subtracting the internal elastic area from the external elastic area. The values were averaged and used for calculating pulmonary arterial vessel thickness.
Paraffin sections were blocked with 5% normal donkey serum (Vector Laboratories) in PBST (PBS solution of 0.3% Triton X-100) for 1 h at room temperature. Thereafter, lung tissue sections were incubated with […] for Alexa Fluor 568-conjugated smooth muscle actin (α-SMA; 1:300 dilution) and Alexa Fluor 488-conjugated von Willebrand Factor (vWF; 1:200 dilution) at 4° C. for 12 h. Subsequently, nuclei were counterstained with DAPI. Fluorescence images were recorded in random regions of at least 10 pulmonary artery vessels (diameter 20-100 um) per tissue section at a screen magnification of 60× using an LSM 880 confocal microscope equipped with argon and helium-neon lasers.
The therapeutic effect of new compounds on pulmonary arterial hypertension was evaluated in a preclinical SuHx rat model. For establishing PAH model, rats were administered with Sugen (VEGFR2 inhibitor) and placed in a normobaric hypoxic condition (10% O2) for 3 weeks. Rats were moved to normoxic condition and orally administered with control vehicle or compound 1 or 8 (P.O., once daily, 0.1 mg/kg) for 5 weeks. Thereafter, right ventricular systolic pressure (RVSP) and right ventricular hypertrophy (Fulton's index) were measured at the end of treatment.

[4] = test system: PDGF-induced tyrosine phosphorylation and PLC-γ1 phosphorylation in PASMC; assay: Immunoblot of PDGF-mediated signaling in PrxII knock-down PASMC; assay type: cell-based, human; conditions: PASMCs, PDGF stimulation, FIG. 3
Experimental: (§1) Cells were quickly washed in ice-cold phosphate-buffered saline (PBS) and lysed in extraction buffer containing 20 mM Hepes (pH 7.0), 1% Triton X-100, 150 mM NaCl, 10% glycerol, 1 mM EDTA, 2 mM EGTA, and 1 mM DTT, 5 mM Na3VO4, 5 mM NaF, 1 mM AEBSF, aprotinin (5 μg/mL), and leupeptin (5 μg/mL). After cen-trifugation at 12,000×g, the clarified cell extracts were used for immunoblotting. For re-blotting, the immunoblots were retrieved in a solution of 67 mM Tris (pH 6.7), 2% SDS, and 100 mM 2-mercaptoethanol at 60° C. for 30 min to remove antibodies and rinsed three times with a Tris-buffered saline (TBS) solution containing 1% Triton X-100. The retrieved membranes were subjected to new immunoblotting.
In human aortic smooth muscle cell (HASMC) and human pulmonary artery smooth muscle cell (PASMC) in which PrxII was knocked out by transfecting the PrxII siRNA, the ability of test compounds to replace the cellular function of PrxII was evaluated. That is, the efficacy of the new compounds was verified in terms of signaling pathways induced by PDGF that regulates the growth and migration of vascular smooth muscle cells in the aorta and pulmonary artery. Activation of PDGF-induced signaling pathway was analyzed by an immunoblot method using an antibody that specifically recognizes phosphorylation of Tyr 857, which is a major phosphorylation site on PDGF receptor (PDGFRβ).

[5] = test system: VEGF-induced tyrosine phosphorylation and ERK2 phosphorylation in PAEC; assay: Immunoblot of VEGF-mediated signaling in PrxII knock-down PAEC; assay type: cell-based, human; conditions: PAECs, VEGF stimulation, FIG. 6
Experimental: as §1
In human aortic endothelial cell (HAEC) and human pulmonary artery endothelial cell (PAEC) in which PrxII was knocked out by transfecting the PrxII siRNA, the ability of test compounds to replace the cellular function of PrxII was evaluated. That is, the efficacy of the new compounds was verified in terms of signaling pathways induced by VEGF that regulates the growth and migration of vascular endothelial cells in the aorta and pulmonary artery. Activation of VEGF-induced signaling pathway was analyzed by an immunoblot method using an antibody that specifically recognizes phosphorylation of Tyr 1175, which is a major phosphorylation site on VEGF receptor-2 (VEGFR2).

Compound | CC50 [1] | CC50 [2] | Pulmonary arterial vessel occlusion (histology) ([3]; FIG. 8) | RV hypertrophy (Fulton's index) [3] | Right ventricular systolic pressure (RVSP) [3] | Endothelial layer (vWF-labeled ECs) in pulmonary arterial vessels ([3]; immunostaining, FIG. 9) | Medial thickness (SMA-labeled SMCs) in pulmonary arterial vessels ([3]; immunostaining, FIG. 9) | Effect on total tyrosine phosphorylation and phosphorylation of signaling proteins downstream of PDGFRβ [4] | Effect on total tyrosine phosphorylation and phosphorylation of signaling proteins downstream of VEGFR2 [5]
CN1C(=O)C2(C)SSCC1C(=O)N2C (centres unmarked) [Compound 1, 1,6,8-trimethyl-2,3-dithia-6,8-diazabicyclo[3.2.2]nonane-7,9-dione] | > 500 µM | > 500 µM | widens the pulmonary arterial vessels | significantly reduces | significantly reduces | induces the recovery of endothelial layer | reduction of medial thickness |  | 
O=C1C2CSSC3(COCCN13)C(=O)N2Cc1ccccc1 (centres unmarked) [Compound 8, 12-benzyltetrahydro-5H,10H-4,10a-(epiminomethano)[1,4]oxazino[3,4-c][1,2,4]dithia zepine-5,11-dione] |  |  |  | significantly reduces | significantly reduces |  |  | significantly inhibits the protein phosphorylation | significantly inhibits the protein phosphorylation
